Experimental data: US8134015B2, “Compound inhibiting in vivo phosphorous transport and medicine containing the same” (Kyowa Hakko Kirin Co., Ltd., priority 2003, dated 2012)

Target: T1, rat NaPi-2b (Rattus norvegicus, UniProt Q9JJ09)
T1 construct: expressed in transfected cells; host or cells: Xenopus oocytes injected with cRNA
T1 sequence (Q9JJ09 1-695): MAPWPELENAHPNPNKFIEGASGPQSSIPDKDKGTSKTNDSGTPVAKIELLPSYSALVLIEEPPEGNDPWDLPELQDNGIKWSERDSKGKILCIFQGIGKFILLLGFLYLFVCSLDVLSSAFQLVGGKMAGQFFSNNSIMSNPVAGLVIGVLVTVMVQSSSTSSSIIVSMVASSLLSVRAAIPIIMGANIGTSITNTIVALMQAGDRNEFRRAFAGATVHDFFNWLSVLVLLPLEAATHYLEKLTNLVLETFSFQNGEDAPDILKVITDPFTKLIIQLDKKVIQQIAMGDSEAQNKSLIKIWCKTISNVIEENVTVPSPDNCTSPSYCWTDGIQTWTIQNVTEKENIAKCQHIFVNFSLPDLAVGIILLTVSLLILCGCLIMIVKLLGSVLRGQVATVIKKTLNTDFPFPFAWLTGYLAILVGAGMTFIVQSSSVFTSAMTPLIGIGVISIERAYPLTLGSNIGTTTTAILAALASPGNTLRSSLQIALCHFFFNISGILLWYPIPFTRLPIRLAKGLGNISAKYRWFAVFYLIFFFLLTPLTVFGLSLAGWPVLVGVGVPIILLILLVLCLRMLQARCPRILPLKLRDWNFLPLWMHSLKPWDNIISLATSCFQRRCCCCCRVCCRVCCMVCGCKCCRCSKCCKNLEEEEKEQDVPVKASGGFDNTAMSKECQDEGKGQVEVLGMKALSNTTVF
Experiment: Sodium-dependent phosphate uptake of Xenopus oocytes which expressed NaPi-2b (32P)
Assay type: cell-based
Details: for IC50: Xenopus oocytes expressing rat NaPi-2b, 32P radioactive phosphorus, read-out: IC50 (phosphate uptake inhibitory activity); for inhibition at 300 µM: phosphate uptake, oocytes expressing rat NaPi-2b, determined from inhibition curve
How it was run: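 Inhibition at 300 μM and 100 μM was read off one inhibition curve of 32P phosphate uptake. Uptake was measured in Xenopus oocytes cultured 2 days after injection of cRNA for cloned rat NaPi-2b.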

| SMILES | IC50 [µM] | inhibition at 300 µM [%] |
| --- | --- | --- |
| CCN(CC)CCN(C)Cc1cccc(C(=O)Nc2scc(C)c2C(=O)N/N=C/c2ccc(OC)cc2)c1 [Compound 568, 3-{[(2-Diethylamino-ethyl)-methyl-amino]-methyl}-N-[3-(4-methoxy-benzylidene-hydrazinocarbonyl)-4-methyl-thiophen-2-yl]-benzamide] | 4.32 | – |
| Cn1cccc1/C=N/NC(=O)c1ccccc1NC(=O)c1ccncc1 [Compound 210, N-[2-(1-Methyl-1H-pyrrol-2-ylmethylene-hydrazinocarbonyl)-phenyl]-isonicotinamide] | 35 | – |
| CC(O)CN(Cc1cccc(C(=O)Nc2cc3ccccc3cc2C(=O)N/N=C/c2cccc(F)c2)c1)CC(C)O (stereo not drawn) [Compound 959, 3-{[Bis-(2-hydroxy-propyl)-amino]-methyl}-N-[3-(3-fluoro-benzylidene-hydrazinocarbonyl)-naphthalen-2-yl]-benzamide] | < 1 | – |
| Cc1ccc(/C=N/NC(=O)c2c(C)csc2NC(=O)c2cccc(CN3CCN(CCO)CC3)c2)cc1C [Compound 575, N-[3-(3,4-Dimethyl-benzylidene-hydrazinocarbonyl)-4-methyl-thiophen-2-yl]-3-[4-(2-hydroxy-ethyl)-piperazin-1-ylmethyl]-benzamide] | < 3 | – |
| COc1ccc(C(=O)Nc2ccccc2C(=O)N/N=C/c2ccc(O)c(C)c2)cc1OC [Compound 42, N-[2-(4-Hydroxy-3-methyl-benzylidene-hydrazinocarbonyl)-phenyl]-3,4-dimethoxy-benzamide] | 8.21 | – |
| C/C(=N\NC(=O)c1cc(Br)ccc1NC(=O)c1cccc(CN(CC(C)O)CC(C)O)c1)c1cccc(F)c1 (stereo not drawn) [Compound 996, 3-{[Bis-(2-hydroxy-propyl)-amino]-methyl}-N-{4-bromo-2-[1-(3-fluoro-phenyl)-ethylidene-hydrazinocarbonyl]-phenyl}-benzamide] | 2.66 | – |
| Cc1ccc(/C=N/NC(=O)c2cccnc2NC(=O)c2cccc(CN(CC(C)O)CC(C)O)c2)cc1C (stereo not drawn) [Compound 966, 3-{[Bis-(2-hydroxy-propyl)-amino]-methyl}-N-[3-(3,4-dimethyl-benzylidene-hydrazinocarbonyl)-pyridin-2-yl]-benzamide] | 16 | – |
| Cc1ccc(/C=N/NC(=O)c2c(NC(=O)c3cccc(CN4CCC(N5CCCCC5)CC4)c3)sc3c2CCCC3)cc1C [Compound 615, 3-[1,4′]Bipiperidinyl-1′-ylmethyl-N-[3-(3,4-dimethyl-benzylidene-hydrazinocarbonyl)-4,5,6,7-tetrahydro-benzo[b]thiophen-2-yl]-benzamide] | 2.08 | – |
| COc1ccc(C(=O)Nc2cc(Cl)ccc2C(=O)N/N=C/c2cccc(F)c2)cc1OC [Compound 71, N-[5-Chloro-2-(3-fluoro-benzylidene-hydrazinocarbonyl)-phenyl]-3,4-dimethoxy-benzamide] | 12.3 | – |
| COc1ccc(/C=N/n2c(-c3cccc(CSc4nc[nH]n4)c3)nc3sc4c(c3c2=O)CCCC4)cc1 [Compound 651, 3-[(4-Methoxy-benzylidene)-amino]-2-[3-(1H-[1,2,4]triazol-3-ylsulfanylmethyl)-phenyl]-5,6,7,8-tetrahydro-3H-benzo[4,5]thieno[2,3-d]pyrimidin-4-one] | 263 | – |
| Cc1ccc(/C=N/NC(=O)c2cc(N3CCCCC3)ccc2NC(=O)c2cccc(CNCCN(CCO)CCO)c2)cc1C [Compound 913, 3-({2-[Bis-(2-hydroxy-ethyl)-amino]-ethylamino}-methyl)-N-[2-(3,4-dimethyl-benzylidene-hydrazinocarbonyl)-4-piperidin-1-yl-phenyl]-benzamide] | 1.65 | – |
| O=C(Nc1ccccc1C(=O)N/N=C/c1ccc(F)cc1)c1cccc(F)c1 [Compound 82, 3-Fluoro-N-[2-(4-fluoro-benzylidene-hydrazinocarbonyl)-phenyl]-benzamide] | 6.03 | – |
| CCN(CC)CCNCc1cccc(C(=O)Nc2c(C)csc2C(=O)N/N=C/c2ccc(Cl)c(C(F)(F)F)c2)c1 [Compound 539, N-[2-(4-Chloro-3-trifluoromethyl-benzylidene-hydrazinocarbonyl)-4-methyl-thiophen-3-yl]-3-[(2-diethylamino-ethylamino)-methyl]-benzamide] | – | 88.4 |
| O=C(Nc1ccc(Cl)cc1C(=O)N/N=C/c1cccc(F)c1)c1cccc(CSCc2ccco2)c1 [Compound 680, N-[4-Chloro-2-(3-fluoro-benzylidene-hydrazinocarbonyl)-phenyl]-3-(furan-2-ylmethylsulfanylmethyl)-benzamide] | 4.04 | – |

Continued, values first:

| IC50 [µM] | inhibition at 300 µM [%] | SMILES |
| --- | --- | --- |
| 4.12 | – | Cc1csc(NC(=O)c2cccc(CN3CCC(N4CCCCC4)CC3)c2)c1C(=O)N/N=C/c1cccc(F)c1 [Compound 572, 3-[1,4′]Bipiperidinyl-1′-ylmethyl-N-[3-(3-fluoro-benzylidene-hydrazinocarbonyl)-4-methyl-thiophen-2-yl]-benzamide] |
| – | 85.2 | O=C(Nc1ccc(Br)cc1C(=O)NNCc1ccc(Cl)c(C(F)(F)F)c1)c1cccc(CSCCO)c1 [Compound 546, N-{4-Bromo-2-[N′-(4-chloro-3-trifluoromethyl-benzyl)-hydrazinocarbonyl]-phenyl}-3-(2-hydroxy-ethylsulfanylmethyl)-benzamide] |
| 3.5 | – | Cc1cccc(/C=N/NC(=O)c2cc(Br)ccc2NC(=O)c2ccco2)c1 [Compound 153, Furan-2-carboxylic acid [4-bromo-2-(3-methyl-benzylidene-hydrazinocarbonyl)-phenyl]-amide] |
| 6.12 | – | O=C(Nc1ccc(Br)cc1C(=O)N/N=C/c1ccc(Cl)c(C(F)(F)F)c1)c1ccc(CN2CCC(CCO)CC2)cc1 [Compound 745, N-[4-Bromo-2-(4-chloro-3-trifluoromethyl-benzylidene-hydrazinocarbonyl)-phenyl]-4-[4-(2-hydroxy-ethyl)-piperidin-1-ylmethyl]-benzamide] |
| 3.67 | – | CN(CCO)Cc1cccc(C(=O)Nc2ccc(Cl)cc2C(=O)N/N=C/c2ccc(Cl)c(C(F)(F)F)c2)c1 [Compound 399, N-[4-Chloro-2-(4-chloro-3-trifluoromethyl-benzylidene-hydrazinocarbonyl)-phenyl]-3-{[(2-hydroxy-ethyl)-methyl-amino]-methyl}-benzamide] |
| 0.15 | – | Cc1ccc(/C=N/NC(=O)c2cc(Br)ccc2NC(=O)c2ccc(CSCCCO)cc2)cc1C [Compound 273, N-[4-Bromo-2-(3,4-dimethyl-benzylidene-hydrazinocarbonyl)-phenyl]-4-(3-hydroxy-propylsulfanylmethyl)-benzamide] |
| 1.1 | – | CCN(CC)CCN(Cc1cccc(C(=O)Nc2sc3c(c2C(=O)N/N=C/c2ccc(C)cc2)CCCC3)c1)C(C)=O [Compound 653, 3-{[Acetyl-(2-diethylamino-ethyl)-amino]-methyl}-N-[3-(4-methyl-benzylidene-hydrazinocarbonyl)-4,5,6,7-tetrahydro-benzo[b]-thiophen-2-yl]-benzamide] |
| – | 59.4 | O=C(Nc1ccc(Cl)cc1C(=O)N/N=C/c1ccc(Cl)c(C(F)(F)F)c1)c1cccc(CSCCS(=O)(=O)O)c1 [Compound 709, 2-{3-[4-Chloro-2-(4-chloro-3-trifluoromethyl-benzylidene-hydrazinocarbonyl)-phenylcarbamoyl]-benzylsulfanyl}-ethanesulfonic acid] |
| 1.16 | – | CCN(CC)CCN(C)Cc1ccc(C(=O)Nc2ccc(Br)cc2C(=O)N/N=C/c2cccc(OC)c2)cc1 [Compound 291, N-[4-Bromo-2-(3-methoxy-benzylidene-hydrazinocarbonyl)-phenyl]-4-{[(2-diethylamino-ethyl)-methyl-amino]-methyl}-benzamide] |
| 3.62 | – | Cc1ccc(/C=N/NC(=O)c2c(NC(=O)c3cccc(CN4CCC(CO)CC4)c3)sc3ccccc23)cc1C [Compound 798, N-[3-(3,4-Dimethyl-benzylidene-hydrazinocarbonyl)-benzo[b]thiophen-2-yl]-3-(4-hydroxymethyl-piperidin-1-ylmethyl)-benzamide] |
| 18.7 | – | CCN(CC)CCN(C)Cc1cccc(C(=O)Nc2ccc(OCCOCCOC)cc2C(=O)N/N=C/c2cccc(F)c2)c1 [Compound 1033, 3-{[(2-Diethylamino-ethyl)-methyl-amino]-methyl}-N-{2-(3-fluoro-benzylidene-hydrazinocarbonyl)-4-[2-(2-methoxy-ethoxy)-ethoxy]-phenyl}-benzamide] |
| 7.96 | – | CN(CCO)Cc1ccc(C(=O)Nc2ccc(Cl)cc2C(=O)N/N=C/c2cccc(F)c2)cc1 [Compound 412, N-[4-Chloro-2-(3-fluoro-benzylidene-hydrazinocarbonyl)-phenyl]-4-{[(2-hydroxy-ethyl)-methyl-amino]-methyl}-benzamide] |
| 2.89 | – | CCN(CC)CCN(C)Cc1ccc(C(=O)Nc2ccc(Br)cc2C(=O)N/N=C/c2ccc(Cl)c(C(F)(F)F)c2)cc1 [Compound 289, N-[4-Bromo-2-(4-chloro-3-trifluoromethyl-benzylidene-hydrazinocarbonyl)-phenyl]-4-{[(2-diethylamino-ethyl)-methyl-amino]-methyl}-benzamide] |
